Assay results published in US20090043129A1 (priority 2005, published 2009).
Like-named read-outs stand apart in the source and are kept apart here.

Columns and labels:
[1] = target: T1, human recombinant CB2 receptor (Homo sapiens, UniProt P34972); test: CB2 binding, [3H]CP55,940 displacement, membranes from transfected COS cells; design: purchased Perkin-Elmer; host or cells: COS cells; conditions: values in nM
[2] = target: T2, CB1 cannabinoid receptors (Mus musculus, UniProt P47746); test: Forskolin-induced cyclic AMP in N18TG2 neuroblastoma cells; assay type: cell-based
T2 construct: N18TG2 mouse neuroblastoma cells, which constitutively and selectively express the CB 1 cannabinoid receptors; endogenous in cells; host or cells: N18TG2 mouse neuroblastoma cells
T2 sequence (P47746 whole entry): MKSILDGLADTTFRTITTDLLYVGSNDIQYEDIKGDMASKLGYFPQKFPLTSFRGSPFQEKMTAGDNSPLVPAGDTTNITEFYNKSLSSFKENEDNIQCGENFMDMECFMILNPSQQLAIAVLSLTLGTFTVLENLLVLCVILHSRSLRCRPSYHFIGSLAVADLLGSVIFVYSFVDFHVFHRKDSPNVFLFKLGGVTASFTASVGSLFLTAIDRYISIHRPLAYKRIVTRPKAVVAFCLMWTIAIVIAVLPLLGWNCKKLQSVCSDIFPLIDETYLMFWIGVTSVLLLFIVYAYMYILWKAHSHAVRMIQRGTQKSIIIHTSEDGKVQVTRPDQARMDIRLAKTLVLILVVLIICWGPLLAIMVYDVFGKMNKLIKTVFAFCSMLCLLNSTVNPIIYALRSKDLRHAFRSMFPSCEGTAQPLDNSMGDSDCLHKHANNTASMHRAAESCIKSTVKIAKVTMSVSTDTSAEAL
Protocol: (§1) After incubation, 800 μl of methanol were added, cells were extracted and cyclic AMP was determined with a cyclic AMP assay kit (Amersham, UK), in accordance with the supplier's recommendations.

[3] = target: T1, human recombinant CB2 receptor; test: [35S]GTP-γ-S binding, CHO cells over-expressing hCB2; assay type: biochemical; design: expressed in transfected cells; host or cells: CHO cells (stably over-expressing); conditions: for antagonism of CP55940-induced stimulation of GTP-γ-S binding (in words) / effect on GTP-γ-S-binding (in words): CHO hCB2; for functional behaviour at CB2 receptors: Test 1 and Test 2, CHO hCB2
Excerpt: Results were compared to the potent CB1 and CB2 receptor agonist CP55940, purchased from Cayman Chemicals, Ann Arbour, Mich., USA.

[4] = target: T1, human recombinant CB2 receptor; test: Forskolin-induced cAMP formation in CHO cells over-expressing hCB2; assay type: cell-based; design: expressed in transfected cells; host or cells: CHO cells (stably over-expressing)
Protocol: as §1

[5] = target: T3, human recombinant CB1 receptor (Homo sapiens, UniProt P21554); test: Forskolin-induced cAMP formation in CHO cells over-expressing hCB1; assay type: cell-based; design: expressed in transfected cells; host or cells: CHO cells
T3 sequence (P21554 whole entry): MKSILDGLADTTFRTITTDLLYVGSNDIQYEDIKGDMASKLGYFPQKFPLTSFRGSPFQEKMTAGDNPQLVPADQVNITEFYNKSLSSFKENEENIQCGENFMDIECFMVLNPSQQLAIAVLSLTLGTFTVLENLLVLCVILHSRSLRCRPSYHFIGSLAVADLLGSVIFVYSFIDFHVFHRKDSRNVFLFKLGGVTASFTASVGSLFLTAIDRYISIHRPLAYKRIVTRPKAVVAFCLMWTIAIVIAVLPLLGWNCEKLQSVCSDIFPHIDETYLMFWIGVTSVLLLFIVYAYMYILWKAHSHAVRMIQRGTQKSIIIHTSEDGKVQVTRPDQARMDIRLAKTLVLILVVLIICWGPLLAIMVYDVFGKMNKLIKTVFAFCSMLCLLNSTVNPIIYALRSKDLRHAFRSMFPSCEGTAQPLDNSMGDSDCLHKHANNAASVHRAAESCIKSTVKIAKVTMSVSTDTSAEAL
Protocol: as §1

[6] = target: T3, human recombinant CB1 receptor; assay type: binding; design: purchased Perkin-Elmer; host or cells: COS cells
CB1 receptors = target: T4, CB1 receptors (Mus musculus, UniProt P47746); test: [35S]GTP-γ-S binding, mouse brain membranes; assay type: biochemical
T4 construct: using mouse brain membranes containing CB1 receptors; from tissue; host or cells: mouse brain membranes
T4 sequence (P47746 whole entry): as the sequence (P47746 whole entry) above
Protocol: These assays were performed as previously described (Thomas et al., 2005), using mouse brain membranes containing CB1 receptors or CHO cells stably over-expressing the human recombinant CB2 receptor (10 μg/ml protein), 0.7 nM [^35S]GTP-γ-S and 320 μM GDP, and a final assay volume of 250 μl. Results were compared to the potent CB1 and CB2 receptor agonist CP55940, purchased from Cayman Chemicals, Ann Arbour, Mich., USA.

[7] = target: T5, Fatty Acid Amide Hydrolase (FAAH) (Rattus norvegicus, UniProt P97612); test: biochemical
T5 sequence (P97612 1-579): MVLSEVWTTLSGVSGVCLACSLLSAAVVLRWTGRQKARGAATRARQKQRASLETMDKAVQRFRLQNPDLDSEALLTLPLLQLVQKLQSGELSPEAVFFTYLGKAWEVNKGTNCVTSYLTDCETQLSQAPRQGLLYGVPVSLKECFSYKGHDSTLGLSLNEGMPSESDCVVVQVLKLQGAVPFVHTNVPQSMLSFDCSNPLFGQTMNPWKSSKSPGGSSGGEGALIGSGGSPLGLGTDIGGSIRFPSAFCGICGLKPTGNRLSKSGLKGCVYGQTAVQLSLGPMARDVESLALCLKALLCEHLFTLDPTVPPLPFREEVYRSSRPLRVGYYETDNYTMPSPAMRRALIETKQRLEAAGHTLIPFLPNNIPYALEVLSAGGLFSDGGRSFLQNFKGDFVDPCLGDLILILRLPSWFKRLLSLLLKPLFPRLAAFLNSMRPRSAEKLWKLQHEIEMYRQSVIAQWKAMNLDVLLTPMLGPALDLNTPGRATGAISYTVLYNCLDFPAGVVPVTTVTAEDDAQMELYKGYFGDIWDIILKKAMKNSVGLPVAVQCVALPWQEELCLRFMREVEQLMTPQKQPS
Protocol: Assay for Fatty Acid Amide Hydrolase (FAAH)
The effect of compounds on the enzymatic hydrolysis of [^14C]anandamide (6 μM) was studied using membranes prepared from rat brain incubated with increasing concentrations of compounds in 50 mM Tris-HCl, pH 9, for 30 minutes at 37° C. (Di Marzo et al., 2002). [^14C]ethanolamine produced from [^14C]anandamide hydrolysis was measured counting the scintillation of the aqueous phase after extraction of the incubation mixture with 2 volumes of CHCl3/CH3OH (2:1 by volume). […]

[8] = tested on: Anandamide Membrane Transporter (AMT); test: Anandamide uptake by RBL-2H3 cells; assay type: cell-based; conditions: anandamide uptake, read-out: AMT IC50
Protocol: Assay for the Anandamide Membrane Transporter (AMT)
The effect of the compounds on the uptake of anandamide by the RBL-2H3 cells was studied as described (Di Marzo et al., 2002). Cells were incubated with [^14C]anandamide (4 μM) for 5 minutes at 37° C., in the presence or absence of varying concentrations of the inhibitors. Residual [^14C]anandamide in the incubation media after extraction with CHCl3/CH3OH (2:1 by volume) was used as a measure of the anandamide that was taken up by cells. Data are expressed as the concentration that produces 50% of inhibition of anandamide uptake (IC50) calculated with GraphPad.

[9] = forskolin-induced cAMP formation, CHO hCB2

T1 sequence (P34972 whole entry): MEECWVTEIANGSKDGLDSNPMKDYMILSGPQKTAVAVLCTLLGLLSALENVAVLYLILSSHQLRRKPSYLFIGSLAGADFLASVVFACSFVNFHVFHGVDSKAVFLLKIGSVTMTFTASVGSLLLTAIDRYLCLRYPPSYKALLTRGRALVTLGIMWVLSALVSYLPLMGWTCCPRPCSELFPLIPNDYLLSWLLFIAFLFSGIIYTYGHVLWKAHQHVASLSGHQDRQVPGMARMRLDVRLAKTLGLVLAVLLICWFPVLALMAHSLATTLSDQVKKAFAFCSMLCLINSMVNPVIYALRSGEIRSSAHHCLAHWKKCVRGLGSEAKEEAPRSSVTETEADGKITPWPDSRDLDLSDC

SMILES	Ki [1] [nM]	antagonism of CP55940-induced stimulation of GTP-γ-S binding (in words) [3]	effect on GTP-γ-S-binding (in words) [3]	functional behaviour at CB2 receptors [3]	hCB2 % effect with 10 μM [4, 9] [%]	effect on forskolin-induced cAMP formation (in words) ([4]; CHO hCB2)	functional behaviour in GTP-γ-S-binding (CB1 receptors; mouse brain membranes)	IC50 [8] [nM]	further results
CCCCCc1cc(O)cc(OCCCCCCCCCCC(=O)NC2CC2)c1 [Compound 25, 11-(3-Hydroxy-5-pentyl-phenoxy)-undecanoic acid cyclopropylamide]	13	block the effect of CP55940	no significant stimulation or inhibition	neutral (“silent”) antagonists	26	no significant effect	agonist action	17000	EC50 [2]: 13 nM; functional behaviour at CB1 receptors ([2]; N18TG2 cells, cAMP): inverse agonist/antagonist; EC50 [4]: > 10000 nM; EC50 [5]: 1600 nM; hCB1 % effect with 10 μM ([5]; 10 μM, forskolin-induced cAMP formation, CHO hCB1): 63%; functional behaviour at human recombinant CB1 ([5]; Test 1, CHO hCB1, inhibit forskolin-induced cAMP formation): partial agonists; Ki [6]: 5.2 nM; IC50 (CB1 receptors; mouse brain membranes, read-out: IC50, stimulation of GTP-γ-S-binding): 150 nM; IC50 [7]: > 10000 nM
CCCCCCc1ccc(O)cc1OCCCCCCCCCCC(=O)NC1CC1 [Compound 52, 11-(2-Hexyl-5-hydroxy-phenoxy)-undecanoic acid cyclopropylamide]	30	block the effect of CP55940	no significant stimulation or inhibition	neutral (“silent”) antagonists	5	no significant effect	agonist action	13000	EC50 ([4]; forskolin-induced cAMP formation, CHO hCB2, read-out: hCB2 EC50): > 10000 nM; EC50 ([5]; read-out: hCB1 EC50): 2400 nM; Ki ([6]; values in nM): 210 nM; IC50 (CB1 receptors): 100 nM
